The values that follow are results of earlier work, collected in patent publication US20150283090A1, “USE OF SILICON OXIDE-BASED MATERIAL FOR THE MODIFIED RELEASE OF BIOLOGICALLY ACTIVE AGENTS” (MERCK PATENT GMBH, priority 2012, published 2015).

Read-outs that look alike come from different tables or passages of the source.

The conditions of series [1]: C1 silylation of MCM-41.
For series [2] the following is noted: MCM-48 and LP-la3d, pore sizes 3.6 and 5.7 nm, modified with C8 and C18 hydrocarbon chains.
The conditions of series [3]: silica hybrid gels with methyl or propyl functionalization.

For the compound `C[C@H](CS)C(=O)N1CCC[C@H]1C(=O)O` [Captopril], in series [1], the release rate entry was “decrease of release rate of Captopril with increasing degree of C1 silylation”.

Take `CC(C)Cc1ccc(C(C)C(=O)O)cc1` (centres unmarked) [ibuprofen]: the delivery rates entry in series [2] is reported as “decrease of delivery rates when the surface of the material is modified”.

As for `OCCN(CCO)c1nc(N2CCCCC2)c2nc(N(CCO)CCO)nc(N3CCCCC3)c2n1` [persantin], the drug release entry in series [3] is reported as “inhibition of drug release with an increasing number of methyl or propyl functionalization”.

`CN[C@H](CC(C)C)C(=O)N[C@H]1C(=O)N[C@@H](CC(N)=O)C(=O)N[C@H]2C(=O)N[C@H]3C(=O)N[C@H](C(=O)N[C@H](C(=O)O)c4cc(O)cc(O)c4-c4cc3ccc4O)[C@H](O)c3ccc(c(Cl)c3)Oc3cc2cc(c3O[C@@H]2O[C@H](CO)[C@@H](O)[C@H](O)[C@H]2O[C@H]2C[C@](C)(N)[C@H](O)[C@H](C)O2)Oc2ccc(cc2Cl)[C@H]1O` [vancomycin]: the “release kinetics of vancomycin from SBA-15” value reads like this: (after functionalizing with octylmethoxysilane (C8)) 0.068 min-½; (non-functionalized material) 0.890 min-½.
